Patent US20240199584A1, “KRAS INHIBITORS” (Bristol-Myers Squibb Company, priority 2022, published 2024)
Read-outs that look alike come from different tables or passages of the source.

What was measured:
[1] = biological target: T1, KRAS G12A (Homo sapiens, UniProt P01116, G12A); assay: Cellular KRAS:RAF Disruption Assay (NanoBRET), KRAS G12A; format: cell-based; settings: HEK293 T cells co-expressing RAF1 and KRAS G12A, 24 hours; read-out: RAS::RAF binding via NanoBRET IC50, KRAS G12A
T1 construct: expressed in transfected cells
Procedure: (§1) Cellular KRAS:RAF Disruption Assay
(§2) Stable cell lines (HEK293 T) were generated to co-express RAF1 and mutant or wild type KRAS, as indicated, using the BiBRET vector (Promega). Engineered cell lines were suspended in media (OptiMEM, […]), plated in 384-well plates (8000 cells/well), and allowed to rest for 1.5 hours. Cells were treated with compounds for 24 hours, and NanoBRET NanoGlo substrate (Promega) was added per the manufacturer's instructions.

[2] = biological target: T2, KRAS G12C (Homo sapiens, UniProt P01116, G12C); assay: Cellular KRAS:RAF Disruption Assay (NanoBRET), KRAS G12C; format: cell-based; settings: HEK293 T cells co-expressing RAF1 and KRAS G12C, 24 hours; read-out: RAS::RAF binding via NanoBRET IC50, KRAS G12C
T2 construct: expressed in transfected cells
Procedure: as §1, §2

[3] = biological target: T3, KRAS G12V (Homo sapiens, UniProt P01116, G12V); assay: Cellular KRAS:RAF Disruption Assay (NanoBRET), KRAS G12V; format: cell-based; settings: HEK293 T cells co-expressing RAF1 and KRAS G12V, 24 hours; read-out: RAS::RAF binding via NanoBRET IC50, KRAS G12V
T3 construct: expressed in transfected cells
Procedure: as §1, §2

[4] = biological target: T4, KRAS G13D (Homo sapiens, UniProt P01116, G13D); assay: Cellular KRAS:RAF Disruption Assay (NanoBRET), KRAS G13D; format: cell-based; settings: HEK293 T cells co-expressing RAF1 and KRAS G13D, 24 hours; read-out: RAS::RAF binding via NanoBRET IC50, KRAS G13D
T4 construct: expressed in transfected cells
Procedure: as §1, §2

[5] = biological target: T5, KRAS WT (Homo sapiens, UniProt P01116); assay: Cellular KRAS:RAF Disruption Assay (NanoBRET), KRAS WT; format: cell-based; settings: HEK293 T cells co-expressing RAF1 and wild type KRAS, 24 hours; read-out: RAS::RAF binding via NanoBRET IC50, KRAS WT
T5 construct: expressed in transfected cells
Procedure: as §1, §2

[6] = biological target: T6, KRAS G12R (Homo sapiens, UniProt P01116, G12R); assay: Cellular KRAS:RAF Disruption Assay (NanoBRET), KRAS G12R; format: cell-based; settings: HEK293 T cells co-expressing RAF1 and KRAS G12R, 24 hours; read-out: RAS::RAF binding via NanoBRET IC50, KRAS G12R
T6 construct: expressed in transfected cells
Procedure: as §1, §2

[7] = biological target: T7, KRAS G12S (Homo sapiens, UniProt P01116, G12S); assay: Cellular KRAS:RAF Disruption Assay (NanoBRET), KRAS G12S; format: cell-based; settings: HEK293 T cells co-expressing RAF1 and KRAS G12S, 24 hours; read-out: RAS::RAF binding via NanoBRET IC50, KRAS G12S
T7 construct: expressed in transfected cells
Procedure: as §1, §2

[8] = biological target: T8, KRAS Q61H (Homo sapiens, UniProt P01116, Q61H); assay: Cellular KRAS:RAF Disruption Assay (NanoBRET), KRAS Q61H; format: cell-based; settings: HEK293 T cells co-expressing RAF1 and KRAS Q61H, 24 hours; read-out: RAS::RAF binding via NanoBRET IC50, KRAS Q61H
T8 construct: expressed in transfected cells
Procedure: as §1, §2

[9] = biological target: T9, KRAS Q61R (Homo sapiens, UniProt P01116, Q61R); assay: Cellular KRAS:RAF Disruption Assay (NanoBRET), KRAS Q61R; format: cell-based; settings: HEK293 T cells co-expressing RAF1 and KRAS Q61R, 24 hours; read-out: RAS::RAF binding via NanoBRET IC50, KRAS Q61R
T9 construct: expressed in transfected cells
Procedure: as §1, §2

[10] = biological target: T10, KRAS A146T (Homo sapiens, UniProt P01116, A146T); assay: Cellular KRAS:RAF Disruption Assay (NanoBRET), KRAS A146T; format: cell-based; settings: HEK293 T cells co-expressing RAF1 and KRAS A146T, 24 hours; read-out: RAS::RAF binding via NanoBRET IC50, KRAS A146T
T10 construct: expressed in transfected cells
Procedure: as §1, §2

[11] = biological target: T11, KRAS G12D (Homo sapiens, UniProt P01116, G12D); assay: biochemical
Procedure: Recombinant GST-RAF1 RBD (Ras binding domain) (9 nM) was added, followed by the addition of SA-Tb (0.25 nM), and the reaction mixture was incubated for 3 hours. HTRF (Homogeneous Time-Resolved Fluorescence) signal was measured (PerkinElmer Envision), the signal ratio (λem 520/λem 495) was calculated, and IC50 values were calculated from the dose-response curve.

[12] = biological target: T11, KRAS G12D; assay: biochemical; remark: listed apart in the source
Procedure: BIODIPY-labeled GDP (BIODIPY: dipyrrometheneboron difluoride) (400 nM) and recombinant SOS (son of sevenless protein) (10 nM) were added, and the reaction was incubated for 30 minutes. HTRF signal was measured (PerkinElmer Envision), the signal ratio (λem 520/λem 495) was calculated, and IC50 values were calculated from the dose-response curve.

T11 sequence (P01116 1-188 isoform P01116-2 G12D): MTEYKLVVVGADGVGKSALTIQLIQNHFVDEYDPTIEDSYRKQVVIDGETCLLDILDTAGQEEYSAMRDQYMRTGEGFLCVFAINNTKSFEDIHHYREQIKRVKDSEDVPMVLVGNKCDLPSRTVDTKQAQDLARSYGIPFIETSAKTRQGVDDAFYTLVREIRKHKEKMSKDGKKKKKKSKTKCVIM
T8 sequence (P01116 1-188 isoform P01116-2 Q61H): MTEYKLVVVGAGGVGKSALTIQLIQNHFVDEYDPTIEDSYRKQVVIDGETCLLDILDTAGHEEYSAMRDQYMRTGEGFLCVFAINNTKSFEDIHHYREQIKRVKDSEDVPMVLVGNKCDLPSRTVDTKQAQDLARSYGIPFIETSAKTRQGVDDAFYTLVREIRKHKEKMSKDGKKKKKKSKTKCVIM
T7 sequence (P01116 1-188 isoform P01116-2 G12S): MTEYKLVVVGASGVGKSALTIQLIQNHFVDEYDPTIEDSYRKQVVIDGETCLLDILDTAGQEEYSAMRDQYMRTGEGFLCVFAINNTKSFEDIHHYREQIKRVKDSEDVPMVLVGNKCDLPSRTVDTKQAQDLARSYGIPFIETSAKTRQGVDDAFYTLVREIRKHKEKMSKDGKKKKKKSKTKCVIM
T4 sequence (P01116 1-188 isoform P01116-2 G13D): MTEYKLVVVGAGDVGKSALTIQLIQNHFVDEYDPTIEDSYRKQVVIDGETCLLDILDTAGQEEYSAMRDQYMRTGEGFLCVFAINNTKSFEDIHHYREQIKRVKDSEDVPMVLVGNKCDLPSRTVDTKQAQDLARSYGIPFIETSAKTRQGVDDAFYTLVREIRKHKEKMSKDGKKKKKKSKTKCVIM
T5 sequence (P01116 1-188 isoform P01116-2): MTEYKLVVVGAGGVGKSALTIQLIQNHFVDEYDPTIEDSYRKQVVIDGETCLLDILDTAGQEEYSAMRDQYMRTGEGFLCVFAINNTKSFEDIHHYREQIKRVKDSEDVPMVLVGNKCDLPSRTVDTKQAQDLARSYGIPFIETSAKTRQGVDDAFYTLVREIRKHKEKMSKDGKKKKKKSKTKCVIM
T9 sequence (P01116 1-188 isoform P01116-2 Q61R): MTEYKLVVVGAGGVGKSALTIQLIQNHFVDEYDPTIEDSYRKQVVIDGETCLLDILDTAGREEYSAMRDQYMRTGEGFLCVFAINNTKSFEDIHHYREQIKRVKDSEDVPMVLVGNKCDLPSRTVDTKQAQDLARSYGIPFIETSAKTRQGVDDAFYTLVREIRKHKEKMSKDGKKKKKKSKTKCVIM
T2 sequence (P01116 1-188 isoform P01116-2 G12C): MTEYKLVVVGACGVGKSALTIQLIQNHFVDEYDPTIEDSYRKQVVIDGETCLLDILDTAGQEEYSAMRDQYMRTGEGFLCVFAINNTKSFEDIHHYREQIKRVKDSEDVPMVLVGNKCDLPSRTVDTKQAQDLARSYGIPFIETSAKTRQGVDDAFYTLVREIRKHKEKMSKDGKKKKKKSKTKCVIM
T3 sequence (P01116 1-188 isoform P01116-2 G12V): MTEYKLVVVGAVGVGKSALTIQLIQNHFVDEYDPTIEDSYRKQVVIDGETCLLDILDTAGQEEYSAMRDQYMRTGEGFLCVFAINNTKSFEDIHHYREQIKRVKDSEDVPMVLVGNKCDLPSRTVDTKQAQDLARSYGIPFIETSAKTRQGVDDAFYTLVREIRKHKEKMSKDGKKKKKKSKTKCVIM
T6 sequence (P01116 1-188 isoform P01116-2 G12R): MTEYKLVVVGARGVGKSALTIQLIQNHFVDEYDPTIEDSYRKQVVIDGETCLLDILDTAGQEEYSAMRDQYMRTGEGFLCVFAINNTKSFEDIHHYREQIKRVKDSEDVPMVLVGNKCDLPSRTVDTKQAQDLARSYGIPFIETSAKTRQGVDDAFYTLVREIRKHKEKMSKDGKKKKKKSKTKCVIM
T1 sequence (P01116 1-188 isoform P01116-2 G12A): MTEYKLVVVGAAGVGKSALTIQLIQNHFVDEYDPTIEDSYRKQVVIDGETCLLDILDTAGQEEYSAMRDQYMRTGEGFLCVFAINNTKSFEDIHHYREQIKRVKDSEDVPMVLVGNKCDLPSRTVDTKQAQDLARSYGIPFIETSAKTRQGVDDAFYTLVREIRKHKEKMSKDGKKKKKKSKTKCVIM
T10 sequence (P01116 1-188 isoform P01116-2 A146T): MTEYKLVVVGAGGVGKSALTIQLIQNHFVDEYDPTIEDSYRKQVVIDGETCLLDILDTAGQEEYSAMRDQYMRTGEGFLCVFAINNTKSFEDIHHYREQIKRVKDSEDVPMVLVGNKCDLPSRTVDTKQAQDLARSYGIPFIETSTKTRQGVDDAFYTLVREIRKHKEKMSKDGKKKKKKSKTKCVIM

For `C#Cc1c(F)ccc2cc(O)cc(-c3ncc4c(N5CC6CCC(C5)N6C(=O)C5CC5)nc(OC[C@@]56CCCN5C[C@H](F)C6)nc4c3F)c12` [Example 6-2, 4-(2-{[(2R,7aS)-2-fluoro-hexahydro-1H-pyrrolizin-7a-yl]methoxy}-4-{8-cyclopropanecarbonyl-3,8-diazabicyclo[3.2.1]octan-3-yl}-8-fluoropyrido[4,3-d]pyrimidin-7-yl)-5-ethynyl-6-fluoronaphthalen-2-ol], the IC50 [1] was 29 nM, the IC50 [2] was 117 nM and the IC50 [3] was 405 nM. The IC50 [4] was 72 nM, the IC50 [5] was 69 nM and the IC50 [6] was greater than 10000 nM. For the same compound, the IC50 [7] was 109 nM, the IC50 [8] was 234 nM and the IC50 [9] was greater than 10000 nM. For the same compound, the IC50 [10] was 179 nM, the IC50 [11] was 900 nM and the IC50 [12] was less than 2 nM.

With `C#Cc1c(F)ccc2cc(O)cc(-c3ccc4c(N5CC6CCC(C5)N6C(=O)C(F)(F)F)nc(OC[C@]56CCC[C@H]5N(C)CCC6)nc4c3F)c12` [Example 7-7, 1-[3-(2-{[(4aS,7aR)-1-methyl-octahydro-1H-cyclopenta[b]pyridin-4a-yl]methoxy}-7-(8-ethynyl-7-fluoro-3-hydroxynaphthalen-1-yl)-8-fluoroquinazolin-4-yl)-3,8-diazabicyclo[3.2.1]octan-8-yl]-2,2,2-trifluoroethan-1-one] the IC50 [1] was 226 nM, the IC50 [2] was 346 nM and the IC50 [3] was greater than 5000 nM. The IC50 [4] was 407 nM, the IC50 [5] was 242 nM and the IC50 [6] was greater than 5000 nM. The IC50 [7] was 422 nM, the IC50 [8] was 504 nM and the IC50 [9] was greater than 5000 nM. The IC50 [10] was 577 nM, the IC50 [11] was 7 nM and the IC50 [12] was less than 2 nM.
